Assay [1] in a line: Competitive inhibition of rat intestinal maltase using maltose as substrate assessed as dissociation of enzyme-inhibitor complex at 0.1 to 1 mg/ml by Dixon plot analysis.
Assay [2] can be described thus: Non-competitive inhibition of rat intestinal maltase using maltose as substrate assessed as dissociation of enzyme-substrate-inhibitor complex at 0.1 to 1 mg/ml by secondary plot analysis.

In general, Ki refers to a measure of affinity in units of concentration, obtained from inhibition or displacement.

Turning to `COc1cc([C@@H]2OC[C@@H]3[C@H]2CO[C@H]3c2ccc(O)c(OC)c2)ccc1O` [4-[(1S,3aR,4S,6aR)-4-(4-hydroxy-3-methoxyphenyl)tetrahydro-1H,3H-furo[3,4-c]furan-1-yl]-2-methoxyphenol], the Ki in assay [1] came to 288 µM; in assay [2], 1340 µM.
